{"source": "patent US20050053560A1", "about": "“Use of a composition containing extracts of Vitis vinifera and lycopersicum for protecting the skin” (Pharmaton S.A, priority 2003, published 2005)", "tested_on": "normal human skin fibroblasts of the cell line NHDF", "experiment": "Fluoroscan process: antioxidant capacity of human skin fibroblasts", "assay_type": "cell-based", "conditions": "NHDF cells, reference substance at 25 μM", "from_the_text": "For the present cytotoxicity tests and the Fluoroscan process normal human skin fibroblasts of the cell line NHDF were used as the test system, depending on their availability.\nThe biologically active ingredients (standardised tomato extract, β-Carotene suspension, α-Tocopheryl acetate, standardized grape seed extract, ascorbic acid, selenium yeast) of Seresis® were first investigated in the above-mentioned amounts for possible cytotoxic effects and for their effect on the antioxidant capacity of human skin fibroblasts (NHDF). Apart from the pure mixture of active ingredients the entire contents of an active substance capsule were also used. In addition, a number of additives (oils, etc.) were also included in the test. Using two different in vitro skin models investigations were also carried out to see to what extent the protective effects of the active substances can be visualised. For this, the models were exposed to two different stressors (UV irradiation, activated immune cells).", "data": [{"compound": "Cc1c(C)c2c(c(C)c1O)CC[C@@](C)(CCC[C@H](C)CCC[C@H](C)CCCC(C)C)O2", "note": "[α-Tocopherol]", "values": [{"measurement": "antioxidant potential compared with the carrier control", "value": 120, "unit": "%"}]}]}
